Data: article PMC8268887, “Peptide/β-Peptoid Hybrids with Ultrashort PEG-Like Moieties: Effects on Hydrophobicity, Antibacterial Activity and Hemolytic Properties” (International Journal of Molecular Sciences, 2021)
Converted amounts (≈) assume the structure as drawn.

What was measured:
[1] = rat, in vivo; cited from earlier work
P. aeruginosa PAO1 = type: cell-based, Pseudomonas aeruginosa; details: PAO1, 20 h
Experimental: (§1) MIC values of the peptidomimetics were evaluated by using the modified Hancock lab protocol in non-binding polystyrene microtiter plates. Bacterial suspensions of ~5 × 10^5 CFU/mL in Mueller-Hinton broth (Difco, Sparks, MD, USA) were prepared with Mg^2+ and Ca^2+ concentrations of 4 mg/L each. The compounds were dissolved in H2O and diluted in 0.01% acetic acid, 0.2% BSA (final concentration). Aliquots (11 µL) of test compounds were then transferred to wells containing bacterial suspensions (100 µL). Low-binding sterile tubes and tips (Axygen, Union City, CA, USA) were used for preparation and transfer of the solutions of the compounds. Following incubation for 20 h of the covered plates at 35 °C (±2 °C) with circular shaking at 180 rpm, the MICs were read.

[2] = system: P. aeruginosa NMI 7197/19; type: cell-based, Pseudomonas aeruginosa; details: NMI 7197/19, 20 h
Experimental: as §1

A. baumannii NMI 3658/17 = type: cell-based, Acinetobacter baumannii; details: NMI 3658/17, 20 h
Experimental: as §1

A. baumannii ATCC 19606 = type: cell-based, Acinetobacter baumannii; details: ATCC 19606, 20 h
Experimental: as §1

[3] = Determination of hemolytic activity; type: cell-based; details: red blood cell suspension in PBS buffer, human red blood cells at 400 µg/mL, 37 °C
Experimental: The lysis of human red blood cells was measured almost as previously described, albeit with modifications. In brief, a suspension of freshly drawn human red blood cells (hRBCs) was washed three times with PBS buffer and centrifuged two times for 5 min at 2500 rpm. A two-fold serial dilution of compounds in PBS buffer was prepared. Plates (conical-bottomed 96-well plates) with three replicate wells per dilution, each containing 1% red blood cell suspension, were prepared and dosed with the test compound to achieve a final concentration of 400 μg/mL in a total volume of 100 μL. The plates were incubated (37 °C) for 60 min with mild agitation, and then the cells were pelleted by centrifugation at 1500 rpm for 5 min. The supernatants (50 μL) were then transferred to a fresh 96-well plate, and the concentration of hemoglobin was detected by measuring the OD at 405 nm. The OD of cells incubated with 1% SDS defined 100% hemolysis, while the OD of cells incubated with PBS buffer defined 0% hemolysis. The concentration tested was 400 μg/mL (only average values are stated in Table 5). The percent hemolysis was calculated by using the formula:(3) Hemolysis (%)=100×[Asample−Aneg.control/Apos.control−Aneg.control]

[4] = Hydrophobicity by retention in analytical RP-HPLC (% MeCN at peak elution); type: physicochemical
Experimental: For each peptide/β-peptoid hybrid oligomer, the retention time in RP-HPLC was measured on four different columns (details shown in Table 2): Phenomenex Luna C18(2) column (recommended for hydrophobic compounds [49]), Phenomenex Luna Omega Polar C18 column (recommended for both very polar and non-polar compounds [50]) as well as Phenomenex Aeris Peptide XB-C18 [51] and Sigma-Aldrich Supelco Discovery BIO Wide pore C18 [52] columns, which both are recommended for analysis of peptides. The retention times of the compounds on each column were used to calculate the acetonitrile concentration at peak elution (denoted merely as % MeCN; Table 1). As expected, the % MeCN for each compound varied somewhat between the four columns.
Starting materials and solvents were acquired from commercial suppliers (Iris Biotech, Markredwitz, Germany; Fluorochem, Hadfield, UK; and Merck, Darmstadt, Germany) and used without further purification. Water used for analytical and preparative high-performance liquid chromatography (HPLC) was filtered through a 0.22-μm capsule filter using an Evoqua LaboStar Pro TWF UV system. Purity and retention time of each peptidomimetic were determined by analytical HPLC by using a Phenomenex Luna Omega Polar C18 column (150 × 4.6 mm; particle size: 3 μm; pore size: 100 Å) on a Shimadzu Prominence and Shimadzu Nexera system using an aqueous acetonitrile (MeCN, VWR, Søborg, Denmark) gradient with 0.1% trifluoroacetic acid (TFA, Iris Biotech, Markredwitz, Germany) added (eluent A: 5:95 MeCN–H2O + 0.1% TFA, eluent B: 95:5 MeCN–H2O + 0.1% TFA); a flow rate of 0.8 mL/min was used. For elution of peptidomimetics, a linear gradient of 0% to 60% B during 15 min was used with UV detection at λ = 220 nm. […] Retention time of each peptidomimetic was also determined by using a Phenomenex Luna C18(2) column (150 × 4.6 mm; particle size: 3 μm; pore size: 100 Å), a Phenomenex Aeris Peptide XB-C18 column (150 × 4.6 mm; particle size: 3.6 μm; pore size: 100 Å), and a Sigma-Aldrich Supelco Discovery BIO Wide pore C18 column (150 × 4.6 mm, particle size: 3 µm; pore size: 300 Å). For each peptidomimetic, the percentage of MeCN at peak elution was calculated from the retention time by using the following formula:(1) %MeCN =0.95 (0.6Rt/15 min)+0.05 (1−0.6Rt/15 min)

[5] = Antiproliferative activity on HepG2 cell line (MTT assay); type: cell-based; details: HepG2 cells; at 1280 µg/mL, value in parenthesis; read-out: HepG2 cell viability at highest concentration tested
Experimental: (§2) Effect of compounds on mammalian cell viability was estimated on the HepG2 cell line ATCC HB-8065. In brief, HepG2 cells were seeded into flat-bottomed 96-well plates at a concentration of 5000 cells per well. Subsequently, the cells were incubated for 24 h in a humidified incubator (5% CO2, 37 °C). Then, the medium was removed, and the cells were incubated for 48 h in a humidified incubator (5% CO2, 37 °C) with peptidomimetics in serial dilutions. Then, an 3-(4,5-dimethylthiazol-2-yl)-2,5-diphenyltetrazolium bromide (MTT) assay was performed as previously described. In brief, after incubation with the test compounds, the culture medium was removed, and then fresh medium with 0.2 mg/mL MTT was added into each well of the plate. The cells were then incubated (3 h, 37 °C, 5% CO2), followed by removal of the medium with MTT and addition of 200 μL dimethyl sulfoxide at once to each sample. Absorbance of MTT was measured using the spectrophotometer TECAN Infinite M1000 at 540 nm. The relative viability was calculated by using the formula: ODtreated cells × 100/ODcontrol cells. The IC50 values are calculated by using the program Graph Pad Prism® 5.0. For all compounds, the test range was 10–1280 μg/mL.

[6] = system: HepG2 cell line ATCC HB-8065; test: as above; type: cell-based; details: inhibition of growth of HepG2 cells, 48 h, MTT; highest concentration tested 1280 µg/mL
Experimental: as §2

E. coli NMI 3898/15 = type: cell-based, Escherichia coli; details: NMI 3898/15, 20 h
Experimental: as §1

E. coli NMI 3371/16 = type: cell-based, Escherichia coli; details: NMI 3371/16, 20 h
Experimental: as §1

E. coli ATCC 25922 = type: cell-based, Escherichia coli; details: ATCC 25922, 20 h
Experimental: as §1

E. faecalis ATCC 29212 = type: cell-based; details: ATCC 29212, 20 h
Experimental: as §1

K. pneumoniae ATCC 13883 = type: cell-based; details: ATCC 13883, 20 h
Experimental: as §1

S. aureus ATCC 29213 = type: cell-based, Staphylococcus aureus; details: ATCC 29213, 20 h
Experimental: as §1

Molecule	elimination half-life [1]	MIC, PA (P. aeruginosa PAO1)	MIC, P. aeruginosa NMI 7197/19 [2]	MIC, A. baumannii NMI 3658/17 (A. baumannii NMI 3658/17)	MIC, AB (A. baumannii ATCC 19606)	hemolysis at 60 min [3]	% MeCN at Elution, Aeris Peptide ([4]; Phenomenex Aeris Peptide XB-C18 column, gradient 0→60% B during 15 min)	% MeCN at Elution, Luna ([4]; Phenomenex Luna C18(2) column, RP-HPLC gradient 0→60% B during 15 min, relative hydrophobicity)	% MeCN at Elution, Luna Omega ([4]; Phenomenex Luna Omega Polar C18 column, gradient 0→60% B during 15 min)	% MeCN at Elution, Supelco Discovery ([4]; Supelco Discovery BIO Wide pore C18 column, gradient 0→60% B during 15 min)	viability at 48 h [5]	HepG2 IC50 [6]	MIC, E. coli NMI 3898/15 (E. coli NMI 3898/15)	MIC, E. coli NMI 3371/16 (E. coli NMI 3371/16)	MIC, EC (E. coli ATCC 25922)	MIC, EF (E. faecalis ATCC 29212)	MIC, KP (K. pneumoniae ATCC 13883)	MIC, SA (S. aureus ATCC 29213)
VDKPPYLPRPRPIRrPGGr-NH2 [OM19r-8]	1.6 min																	
NCCCC[C@H](NC(=O)CCN(Cc1ccc(F)cc1)C(=O)[C@H](CCCCN)NC(=O)COCCOCCOCCNC(=O)CCN(Cc1ccc(F)cc1)C(=O)[C@H](CCCCN)NC(=O)CCN(Cc1ccc(F)cc1)C(=O)[C@H](CCCCN)NC(=O)COCCOCCOCCNC(=O)CCN(Cc1ccc(F)cc1)C(=O)[C@H](CCCCN)NC(=O)CCN(Cc1ccc(F)cc1)C(=O)[C@@H](N)CCCCN)C(=O)N(CCC(N)=O)Cc1ccc(F)cc1 [Compound 17, H-[X]2-sPEG3-[X]2-sPEG3-[X]2-NH2]		>64 µg/mL	>64 µg/mL	16 µg/mL (≈ 7.14 µM)	16 to 32 µg/mL	9.4%	39.8 % MeCN	41.8 % MeCN	42.4 % MeCN	42.0 % MeCN	35%	~1280 µg/mL	32 µg/mL (≈ 14.3 µM)	8 to 16 µg/mL	8 µg/mL (≈ 3.57 µM)	>64 µg/mL	>64 µg/mL	>64 µg/mL
